{"source": "ChEMBL document CHEMBL3044646", "about": "“Management of tomato leaf mould caused by Cladosporium fulvum with trifloxystrobin” (2007)", "format_in_all_cases": "functional", "key": {"[1]": {"system": "Fulvia fulva", "experiment": "Antifungal activity against Passalora fulva infected tomato cultivar Alma F1 plants grown in growth chamber assessed as reduction in lesions on leaf at 20 ug a.i./ml sprayed 48 hr post-inoculation measured after 22 days relative to control", "set-up": "scale not given: the % may be the effect or the level left"}, "[2]": {"system": "Fulvia fulva", "experiment": "Antifungal activity against Passalora fulva infected tomato cultivar Alma F1 plants grown in growth chamber assessed as reduction in lesions on leaf at 20 ug a.i./ml sprayed 24 hr post-inoculation measured after 22 days relative to control", "set-up": "scale not given: the % may be the effect or the level left"}, "[3]": {"system": "Fulvia fulva", "experiment": "Antifungal activity against Passalora fulva infected tomato cultivar Alma F1 plants grown in growth chamber assessed as inhibition of sporulation at 20 ug a.i./ml applied at 15 days post-inoculation after appearance of symptoms followed by incubation in growth chamber for 72 hr relative to control"}, "[4]": {"system": "Fulvia fulva", "experiment": "Antifungal activity against Passalora fulva infected tomato cultivar Alma F1 plants grown in growth chamber assessed as inhibition of sporulation at 10 ug a.i./ml applied at 15 days post-inoculation after appearance of symptoms followed by incubation in growth chamber for 72 hr relative to control"}, "[5]": {"system": "Fulvia fulva", "experiment": "Antifungal activity against Passalora fulva infected tomato cultivar Alma F1 plants grown in growth chamber assessed as inhibition of sporulation at 5 ug a.i./ml applied at 15 days post-inoculation after appearance of symptoms followed by incubation in growth chamber for 72 hr relative to control"}, "[6]": {"system": "Fulvia fulva", "experiment": "Antifungal activity against Passalora fulva infected tomato cultivar Alma F1 plants grown in growth chamber assessed as reduction in lesions on leaf at 10 ug a.i./ml sprayed 96 hr post-inoculation measured after 22 days relative to control", "set-up": "scale not given: the % may be the effect or the level left"}, "[7]": {"system": "Fulvia fulva", "experiment": "Antifungal activity against Passalora fulva infected tomato cultivar Alma F1 plants grown in growth chamber assessed as reduction in lesions on leaf at 10 ug a.i./ml sprayed 48 hr post-inoculation measured after 22 days relative to control", "set-up": "scale not given: the % may be the effect or the level left"}, "[8]": {"system": "Fulvia fulva", "experiment": "Antifungal activity against Passalora fulva infected tomato cultivar Alma F1 plants grown in growth chamber assessed as reduction in lesions on leaf at 10 ug a.i./ml sprayed 24 hr post-inoculation measured after 22 days relative to control", "set-up": "scale not given: the % may be the effect or the level left"}, "[9]": {"system": "Fulvia fulva", "experiment": "Antifungal activity against Passalora fulva infected tomato cultivar Alma F1 plants grown in growth chamber assessed as reduction in lesions on leaf at 5 ug a.i./ml sprayed 96 hr post-inoculation measured after 22 days relative to control", "set-up": "scale not given: the % may be the effect or the level left"}, "[10]": {"system": "Fulvia fulva", "experiment": "Antifungal activity against Passalora fulva infected tomato cultivar Alma F1 plants grown in growth chamber assessed as reduction in lesions on leaf at 5 ug a.i./ml sprayed 48 hr post-inoculation measured after 22 days relative to control", "set-up": "scale not given: the % may be the effect or the level left"}, "[11]": {"system": "Fulvia fulva", "experiment": "Antifungal activity against Passalora fulva infected tomato cultivar Alma F1 plants grown in growth chamber assessed as reduction in lesions on leaf at 5 ug a.i./ml sprayed 24 hr post-inoculation measured after 22 days relative to control", "set-up": "scale not given: the % may be the effect or the level left"}, "[12]": {"system": "Fulvia fulva", "experiment": "Antifungal activity against Passalora fulva infected tomato cultivar Alma F1 plants grown in growth chamber assessed as reduction in lesions on leaf at 20 ug a.i./ml sprayed 24 hr prior to inoculation measured after 22 days relative to control", "set-up": "scale not given: the % may be the effect or the level left"}, "[13]": {"system": "Fulvia fulva", "experiment": "Antifungal activity against Passalora fulva infected tomato cultivar Alma F1 plants grown in growth chamber assessed as reduction in lesions on leaf at 20 ug a.i./ml sprayed 48 hr prior to inoculation measured after 22 days relative to control", "set-up": "scale not given: the % may be the effect or the level left"}, "[14]": {"system": "Fulvia fulva", "experiment": "Antifungal activity against Passalora fulva infected tomato cultivar Alma F1 plants grown in growth chamber assessed as reduction in lesions on leaf at 20 ug a.i./ml sprayed 96 hr prior to inoculation measured after 22 days relative to control", "set-up": "scale not given: the % may be the effect or the level left"}, "[15]": {"system": "Fulvia fulva", "experiment": "Antifungal activity against Passalora fulva infected tomato cultivar Alma F1 plants grown in growth chamber assessed as reduction in lesions on leaf at 10 ug a.i./ml sprayed 24 hr prior to inoculation measured after 22 days relative to control", "set-up": "scale not given: the % may be the effect or the level left"}, "[16]": {"system": "Fulvia fulva", "experiment": "Antifungal activity against Passalora fulva infected tomato cultivar Alma F1 plants grown in growth chamber assessed as reduction in lesions on leaf at 10 ug a.i./ml sprayed 48 hr prior to inoculation measured after 22 days relative to control", "set-up": "scale not given: the % may be the effect or the level left"}, "[17]": {"system": "Fulvia fulva", "experiment": "Antifungal activity against Passalora fulva infected tomato cultivar Alma F1 plants grown in growth chamber assessed as reduction in lesions on leaf at 10 ug a.i./ml sprayed 96 hr prior to inoculation measured after 22 days relative to control", "set-up": "scale not given: the % may be the effect or the level left"}, "[18]": {"system": "Fulvia fulva", "experiment": "Antifungal activity against Passalora fulva infected tomato cultivar Alma F1 plants grown in growth chamber assessed as reduction in lesions on leaf at 5 ug a.i./ml sprayed 24 hr prior to inoculation measured after 22 days relative to control", "set-up": "scale not given: the % may be the effect or the level left"}, "[19]": {"system": "Fulvia fulva", "experiment": "Antifungal activity against Passalora fulva infected tomato cultivar Alma F1 plants grown in growth chamber assessed as reduction in lesions on leaf at 5 ug a.i./ml sprayed 48 hr prior to inoculation measured after 22 days relative to control", "set-up": "scale not given: the % may be the effect or the level left"}, "[20]": {"system": "Fulvia fulva", "experiment": "Antifungal activity against Passalora fulva infected tomato cultivar Alma F1 plants grown in growth chamber assessed as reduction in lesions on leaf at 5 ug a.i./ml sprayed 96 hr prior to inoculation measured after 22 days relative to control", "set-up": "scale not given: the % may be the effect or the level left"}, "[21]": {"system": "Fulvia fulva", "experiment": "Antifungal activity against Passalora fulva infected tomato cultivar Alma F1 plants grown in growth chamber assessed as reduction in lesions on leaf at 20 ug a.i./ml sprayed 96 hr post-inoculation measured after 22 days relative to control", "set-up": "scale not given: the % may be the effect or the level left"}, "[22]": {"system": "Fulvia fulva", "experiment": "Antifungal activity against Passalora fulva infected tomato cultivar Alma F1 plants grown in growth chamber assessed as inhibition of sporulation at 100 ug a.i./ml applied at 15 days post-inoculation after appearance of symptoms followed by incubation in growth chamber for 72 hr relative to control", "set-up": "scale not given: the % may be the effect or the level left"}, "[23]": {"system": "Fulvia fulva", "experiment": "Antifungal activity against Passalora fulva infected tomato cultivar Alma F1 plants grown in growth chamber assessed as reduction in lesions on leaf at 100 ug a.i./ml sprayed 24 hr prior to inoculation measured after 22 days relative to control", "set-up": "scale not given: the % may be the effect or the level left"}, "[24]": {"system": "Fulvia fulva", "experiment": "Antifungal activity against Passalora fulva infected tomato cultivar Alma F1 plants grown in growth chamber assessed as reduction in lesions on leaf at 100 ug a.i./ml sprayed 48 hr prior to inoculation measured after 22 days relative to control", "set-up": "scale not given: the % may be the effect or the level left"}, "[25]": {"system": "Fulvia fulva", "experiment": "Antifungal activity against Passalora fulva infected tomato cultivar Alma F1 plants grown in growth chamber assessed as reduction in lesions on leaf at 100 ug a.i./ml sprayed 96 hr prior to inoculation measured after 22 days relative to control", "set-up": "scale not given: the % may be the effect or the level left"}, "[26]": {"system": "Fulvia fulva", "experiment": "Antifungal activity against Passalora fulva infected tomato cultivar Alma F1 plants grown in growth chamber assessed as reduction in lesions on leaf at 100 ug a.i./ml sprayed 96 hr post-inoculation measured after 22 days relative to control", "set-up": "scale not given: the % may be the effect or the level left"}, "[27]": {"system": "Fulvia fulva", "experiment": "Antifungal activity against Passalora fulva infected tomato cultivar Alma F1 plants grown in growth chamber assessed as reduction in lesions on leaf at 100 ug a.i./ml sprayed 48 hr post-inoculation measured after 22 days relative to control", "set-up": "scale not given: the % may be the effect or the level left"}, "[28]": {"system": "Fulvia fulva", "experiment": "Antifungal activity against Passalora fulva infected tomato cultivar Alma F1 plants grown in growth chamber assessed as reduction in lesions on leaf at 100 ug a.i./ml sprayed 24 hr post-inoculation measured after 22 days relative to control", "set-up": "scale not given: the % may be the effect or the level left"}}}
{"smiles": "CO/N=C(\\C(=O)OC)c1ccccc1CO/N=C(\\C)c1cccc(C(F)(F)F)c1", "values": [{"measurement": "Activity", "setting": "[1]", "result": 94.5, "unit": "%"}, {"measurement": "Activity", "setting": "[2]", "result": 93.3, "unit": "%"}, {"measurement": "inhibition (INH)", "setting": "[3]", "result": 85.1, "unit": "%"}, {"measurement": "inhibition (INH)", "setting": "[4]", "result": 55.7, "unit": "%"}, {"measurement": "inhibition (INH)", "setting": "[5]", "result": 23.2, "unit": "%"}, {"measurement": "Activity", "setting": "[6]", "result": 60.1, "unit": "%"}, {"measurement": "Activity", "setting": "[7]", "result": 76.1, "unit": "%"}, {"measurement": "Activity", "setting": "[8]", "result": 89, "unit": "%"}, {"measurement": "Activity", "setting": "[9]", "result": 45.7, "unit": "%"}, {"measurement": "Activity", "setting": "[10]", "result": 60.9, "unit": "%"}, {"measurement": "Activity", "setting": "[11]", "result": 69.9, "unit": "%"}, {"measurement": "Activity", "setting": "[12]", "result": 96.5, "unit": "%"}, {"measurement": "Activity", "setting": "[13]", "result": 96.5, "unit": "%"}, {"measurement": "Activity", "setting": "[14]", "result": 94, "unit": "%"}, {"measurement": "Activity", "setting": "[15]", "result": 93.9, "unit": "%"}, {"measurement": "Activity", "setting": "[16]", "result": 90.9, "unit": "%"}, {"measurement": "Activity", "setting": "[17]", "result": 85.3, "unit": "%"}, {"measurement": "Activity", "setting": "[18]", "result": 88.2, "unit": "%"}, {"measurement": "Activity", "setting": "[19]", "result": 85.3, "unit": "%"}, {"measurement": "Activity", "setting": "[20]", "result": 72.8, "unit": "%"}, {"measurement": "Activity", "setting": "[21]", "result": 66.7, "unit": "%"}]}
{"smiles": "N#Cc1c(Cl)c(Cl)c(Cl)c(C#N)c1Cl", "note": "[CHLOROTHALONIL]", "values": [{"measurement": "Activity", "setting": "[22]", "result": 43.2, "unit": "%"}, {"measurement": "Activity", "setting": "[23]", "result": 96.5, "unit": "%"}, {"measurement": "Activity", "setting": "[24]", "result": 95.2, "unit": "%"}, {"measurement": "Activity", "setting": "[25]", "result": 84.4, "unit": "%"}, {"measurement": "Activity", "setting": "[26]", "result": 48.4, "unit": "%"}, {"measurement": "Activity", "setting": "[27]", "result": 73.4, "unit": "%"}, {"measurement": "Activity", "setting": "[28]", "result": 91, "unit": "%"}]}
